From patent publication US7652020B2, “Compounds for the treatment of inflammatory disorders” (Schering Corporation, priority 2004, dated 2010)
Read-outs that look alike come from different tables or passages of the source.

Biological target: T1, purified catalytic domain of recombinant human TACE (rhTACEc) (Homo sapiens, UniProt P78536, N452Q/S266A)
T1 construct: Residue 215 to 477 with two mutation (S266A and N452Q) and a 6×His tail; 6xHis (C); made in house; host or cells: baculovirus/Hi5 insect cells
T1 sequence (P78536 215-477 S266A/N452Q): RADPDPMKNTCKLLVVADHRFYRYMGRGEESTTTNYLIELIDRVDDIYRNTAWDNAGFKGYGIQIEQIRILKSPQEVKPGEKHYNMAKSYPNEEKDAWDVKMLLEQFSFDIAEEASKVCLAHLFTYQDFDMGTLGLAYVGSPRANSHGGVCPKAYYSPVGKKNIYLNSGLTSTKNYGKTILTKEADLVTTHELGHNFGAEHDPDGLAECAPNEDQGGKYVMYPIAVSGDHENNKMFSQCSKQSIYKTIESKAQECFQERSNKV
Assay: TACE kinetic assay: cleavage of internally quenched peptide substrate SPDL-3, fluorescence
Type: biochemical
Conditions: read-out: Ki

[1] = TACE inhibitory activity, class symbols
[2] = TACE, representative compounds, numeric values

Ki [1]	Ki [2]	Compound
< 20 nM	–	CC(=O)Nc1nc([C@H]2CCCN2C(=O)[C@H](O)[C@@H](O)C(=O)N[C@H](C)c2ccc(-n3cccn3)cc2)cs1 [Compound 2579]
< 20 nM	–	C[C@@H](NC(=O)[C@H](O)[C@@H](O)C(=O)N1Cc2cnc(N)nc2C1)c1ccc(-n2cccn2)cc1 [Compound 2043]
20 to 100 nM	–	O=C(NCc1ccc(-c2ccccc2OCCC2CCCC2)cc1)[C@H](O)[C@@H](O)C(=O)N1CCCC1 [Compound 2339]
–	0.8 nM	C[C@@H](NC(=O)[C@H](O)[C@@H](O)C(=O)N1CCC[C@@H]1c1cccc(Cl)c1)c1ccc(-n2cccn2)cc1 [drawing 1304]
–	0.49 nM	C[C@@H](NC(=O)[C@H](O)[C@@H](O)C(=O)N1CC=C[C@@H]1c1cccc(Cl)c1)c1ccc(-n2cccn2)cc1 [drawing 1295]
> 1000 nM	–	Cn1ccnc1[C@H](O)[C@@H](O)C(=O)NCc1ccc(-n2cccn2)cc1 [Compound 2397]

The next lines start with the compound.

Compound	Ki [1]	Ki [2]
C[C@@H](NC(=O)[C@H](O)[C@@H](O)C(=O)N1C[C@@H]2C[C@H](C1)c1cccc(=O)n1C2)c1ccc(-n2cccn2)cc1 [Compound 2097]	100 to 1000 nM	–
C[C@@H](NC(=O)[C@H](O)[C@@H](O)C(=O)N1CC2CC1CN2c1ccc(Cl)cc1)c1ccc(-n2cccn2)cc1 (some centres unmarked) [Compound 2099]	100 to 1000 nM	–
C[C@@H](NC(=O)[C@H](O)[C@@H](O)C(=O)N1CCOCC1)c1ccc(-n2cccn2)cc1 [Compound 2422]	20 to 100 nM	–
C[C@@H](NC(=O)[C@H](O)[C@@H](O)C(=O)N1CCc2ncccc2C1)c1ccc(-n2cccn2)cc1 [Compound 2077]	20 to 100 nM	–
C[C@@H](NC(=O)[C@H](O)[C@@H](O)C(=O)N1CCCCC1c1ccc(Cl)cc1)c1ccc(-n2cccn2)cc1 (some centres unmarked) [Compound 2418]	20 to 100 nM	–
C[C@@H](NC(=O)[C@H](O)[C@@H](O)C(=O)N1C2CCC1CC2)c1ccc(-n2cccn2)cc1 [Compound 2095]	100 to 1000 nM	–
O=C(NCc1ccc(-c2ccccc2OCCC2CCCCC2)cc1)[C@H](O)[C@@H](O)C(=O)N1CCCC1 [Compound 2338]	< 20 nM	–
C[C@@H](NC(=O)[C@H](O)[C@@H](O)C(=O)N1CCC[C@@H]1c1csc(N(C)S(C)(=O)=O)n1)c1ccc(-n2cccn2)cc1 [Compound 2582]	< 20 nM	–
O=C(NCc1ccc(-c2ccccc2OC(F)(F)F)c[n+]1[O-])[C@H](O)[C@@H](O)C(=O)N1CCCC1 [Compound 2347]	> 1000 nM	–
C[C@@H](NC(=O)[C@H](O)[C@@H](O)C(=O)N1Cc2ccccc2C1)c1ccc(-c2ccsc2)cc1	–	3.8 nM
O=C(NCC1CCN(c2cccc(F)c2OC(F)(F)F)CC1)[C@H](O)[C@@H](O)C(=O)N1CCCC1 [Compound 2140]	> 1000 nM	–
